Reference: patent US20090214514A1, “GUS3 NEUROPEPTIDES FOR REGULATING HYPOTHALAMIC FUNCTION” (priority 2004, published 2009)
No end group written: not given here.

Experiment: Standard 24-hour thirst assay: acute effect of icv GUS3 peptides on food and water intake
Format: in vivo, Sprague Dawley rats
Settings: rats thirsted 24 h, not food deprived, single ICV injection in 5 uL vehicle 15 min before reintroduction of water, intake recorded at 30 min, 60 min, 2 h, 3 h; for effect on food intake: vs vehicle (FIG. 8A); for effect on water intake: vs vehicle (FIG. 8B)
Procedure: Animals are injected with the substances after a 24 hr thirst period and food and water intake is monitored at 30 minutes, 60 minutes, 2 hours, 3 hours, and 24 hours.
Thirty-six regular Sprague Dawley rats (Charles River, Germany) weighing approximately 250 gram at the start of the experiment were used for these experiments. All animals were kept under a 12/12 L/D cycle (lights on at 0300) and in temperature and humidity controlled rooms. The animals were allowed a 5 day acclimatisation period after arrival to the test facility in order to reduce stress effects.
All experiments are conducted in accordance with internationally accepted principles for the care and use of laboratory animals and are approved by the Danish committee for animal research. Under Hypnorm Dormicum (Nomeco A/S, Copenhagen Denmark) anesthesia all animals were stereotaxically equipped with a stainless steel cannula aimed at the lateral ventricle (1 mm caudal and 1.5 mm lateral from bregma and 4 mm depth). During a 7 day recovery period, the rats were handled daily in order to accustom them to the experimental procedure.
The following peptides were ordered from Schafer-N, Copenhagen (see also example 2):
The animals were divided into 4 weight-matched groups prior to the test: • Group 4 Vehicle control (5 μL PBS) • Group 3 GUS3 C (10 ug) icv in 5 uL vehicle • Group 2 GUS3 M (1 ug) icv in 5 uL vehicle • Group 1 GUS3 N (10 ug) icv in 5 uL vehicle
The rats were thirsted but not food deprived twenty-four hours before the experiment. Fifteen minutes prior to reintroduction of water (time=0) the animals received an ICV injection of […] of one of the 3 peptides dissolved in 5 μL vehicle or of vehicle alone. Water and food intake was recorded at time=30 minutes, 60 minutes, 2 hour, 3 hours and 24 hours.
The data are evaluated by relevant statistical analyses (Statview software). Results are presented as mean±SEM (standard error of the mean). Statistical evaluation of the data is carried out using one-way analysis of variance (ANOVA) with appropriate post-hoc analysis between control and treatment groups in cases where statistical significance is established (p<0.05; Scheffe or Bonferoni).

Substance | effect on food intake | effect on water intake
ac-QFLKEGQLAAGTCEIVTLDRDSSQP (Ac-QFLKEGQLAAGTCEIVTLDRDSSQP; listed as Homo sapiens) [GUS3 N] | did not seem to affect | did not seem to affect
TIARQTARCAC (listed as Homo sapiens) [GUS3 M] | did not seem to affect | did not seem to affect
